In the METLIN SMRT retention time set (Domingo-Almenara et al. 2019) one finds RP-LC retention time data, which are given here for 80 compounds.

The nature of this data set: gradient 5% acetonitrile 3 min, to 50% in 2 min, to 85% in 15 min, held 3 min, 100 µL/min. The following applies: column: Zorbax Extend-C18 2.1 x 50 mm; eluents: water / acetonitrile, 0.1% formic acid. Summed up:
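A Zorbax Extend-C18 column (2.1 × 50 mm, 1.8 μm) run at 100 μL/min with water and acetonitrile, both containing 0.1% formic acid, separated mixtures of ~100 pure standards. The HPLC was coupled to a quadrupole time-of-flight mass spectrometer operated in positive and negative ionization mode, with dead and dwell volumes of 40 μL and 900 μL. Each retention time was taken from a computationally picked adduct peak that was then manually inspected.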
Compound `COc1ccc(NC(=O)C2CCN(S(=O)(=O)c3ccc4c(c3)NC(=O)CO4)CC2)cc1OC` registered an RP-LC retention time of 715 s.
With `O=C([C@@H]1C[C@H](F)CN1S(=O)(=O)c1ccc(Cl)s1)N1CCc2ccccc2C1` the figure was 955 s; with `Cc1cc(N2CCCCCC2)n2nc(CN3CCCCC3C)nc2n1` (stereo not given), 609 s; with `CCOC(=O)c1c(C)c(C(=O)NCc2ccccc2Cl)c(C)n1CC`, 929 s.
`CN(C)C(=O)c1n[nH]c2c1CN(C(=O)c1ccc(C(F)(F)F)cc1)CC2`: the RP-LC retention time turned out to be 674 s.
For `CCc1nc(-c2csc(S(=O)(=O)N3CCCC(C(=O)NCc4ccc(C)o4)C3)c2)no1` (stereo not given), the RP-LC retention time is 946 s.
`COC(=O)c1cc(C2CC2)nc2c1c(=O)n(Cc1ccc(C)cc1)c(=O)n2C` came in with an RP-LC retention time of 1160 s.
The compound `CC(C)c1nc(N2CCCC2=O)sc1C(=O)NCc1ccc(N(C)C)cc1` returned an RP-LC retention time of 675 s.
To `O=[N+]([O-])c1ccccc1S(=O)(=O)Nc1ccc(N2CCOCC2)cc1` belongs 749 s; to `Cc1ccc(C)c(-c2cc3c(=O)n(Cc4nc(-c5ccc(Br)cc5)no4)ncn3n2)c1`, 1320 s.
Compound `CCOC(=O)c1nc(Nc2ccccc2OCC)c2ccccc2n1` displayed an RP-LC retention time of 942 s.
The compound `O=C(C1=CCN(Cc2ccccc2)CC1)N1CCN(c2ccc(F)cc2)CC1` displayed an RP-LC retention time of 655 s.
As to `CN[C@@H](C)C(=O)N[C@H](C(=O)N1CCC[C@H]1c1nc(C(=O)c2ccc(F)cc2)cs1)C1CCCCC1`, the RP-LC retention time came to 787 s.
To `CCCN1C(=O)c2c(C(=O)NCc3cccc(C)c3)ncn2CC1(C)C(=O)NC1CCCC1` (stereo not given) belongs 851 s; to `Cn1cc(CCNC(=O)c2cncc(Br)c2)c2cccnc21`, 638 s.
With `COc1cc(OC)cc(C(=O)N2CCN(c3nnc4c(Cl)cccn34)CC2)c1` the figure was 603 s.
`CCC(C)NC(=O)N1CC(Oc2ccc(-c3nc(C)no3)cc2)C1` (stereo not given) gave an RP-LC retention time of 873 s.
With `Cc1ccc2[nH]cc(CCNC(=O)c3cccc(NC(=O)c4nnc(C5CC5)s4)c3)c2c1` the figure was 932 s; with `COCCNC(=O)C1CCN(c2cnc(N3CCCC3)nc2)CC1`, 580 s.
To `O=C(c1cnccn1)N1CCCn2nc(-c3ccc(Cl)cc3)cc2C1` belongs 788 s.
To `COCCCNC(=O)CN1CCN(c2cc(C(=O)O)c3cc(NC(=O)C4CCCC4)ccc3n2)CC1` belongs 575 s; to `CC(=O)c1ccc(N(C(C)=O)S(=O)(=O)c2ccc(Cl)cc2)cc1`, 841 s.
In the case of `Cn1cnc(S(=O)(=O)N2CCCC(c3nnnn3-c3ccccc3)C2)c1` (stereo not given), the RP-LC retention time was found to be 690 s.
With `CN(C)CCNC(=O)c1cn(C)nc1S(=O)(=O)N1CCN(c2ccc(Cl)cc2)CC1`, the RP-LC retention time amounted to 672 s.
With `COc1ccc(-c2csc(Nc3cccnc3)n2)cc1` the figure was 656 s; with `COc1ccc(S(=O)(=O)N2CCC(c3noc(-c4cccc(F)c4)n3)CC2)cc1`, 1100 s.
Turning to `CCOC(=O)c1cnn(-c2cccc(Cl)c2)c1C1CCNCC1`, the RP-LC retention time stood at 650 s.
To `Cc1cccc(S(=O)(=O)N2CCc3nc[nH]c3C2)c1` belongs 590 s; to `CCN(Cc1c(C)nn(CC)c1C)C(=O)Cn1nc2n(c1=O)CCC(N)CC2` (stereo not given), 551 s; to `Cc1nnc(-c2cc(C)n(CC(=O)Nc3ccc(Cl)cc3C)c2C)o1`, 810 s.
With `COc1ccc(-c2nc(NC(=O)CSc3ccccc3)sc2CCC(=O)O)cc1` the figure was 852 s; with `Cn1nccc1-c1csc(S(=O)(=O)NC2CC2)c1`, 713 s.
`Cc1cccc(CN2C(=O)CN(S(C)(=O)=O)CC2(C)C(=O)NCc2ccc(F)cc2)c1` (stereo not given) displayed an RP-LC retention time of 856 s.
`Cc1ccc(CNC(=O)c2ccc(-c3nnc4ccc(NC(=O)C5CCC5)cn34)cc2)cc1` gave an RP-LC retention time of 869 s.
To `COc1ccc(NC(=O)CC(C)=O)c(OC)c1` belongs 649 s.
With `CCc1cccc(NC(=O)Cn2c(N3CCOCC3)nc(CC)cc2=O)c1` the figure was 791 s; with `CC(C)Cn1c(=O)c2ccccc2n(Cc2nc(-c3ccccc3)no2)c1=O`, 1040 s; with `Cc1cccc(N2CCN(C(=O)CC3COc4ccccc4NC3=O)CC2)c1C` (stereo not given), 861 s.
With `CCc1noc(NC(C)=O)c1-c1ccc(OC)c(S(=O)(=O)NC(C)CC)c1` (stereo not given) the figure was 746 s.
For the compound `CCC(=O)N1CCc2cc(C(=O)N(C)C)ccc21`, the RP-LC retention time worked out at 673 s.
In turn, `O=C(Cn1nc(-c2cccs2)ccc1=O)Nc1nc2c(s1)CCCC2` showed an RP-LC retention time of 741 s.
With `COc1cccc(CNC(=O)c2nnc(-c3ccc(S(=O)(=O)N(C)C)cc3)o2)c1` the figure was 827 s; with `O=c1[nH]c2ccc(NCc3ccc(-c4ccccc4)cc3)cc2[nH]1`, 674 s; with `Cc1cc(-c2nnc(NC(=O)Cc3ccc4c(c3)OCO4)o2)n(C)n1`, 648 s.
With `CC1CCN(c2ncc(C(=O)O)c(-c3ccncc3)n2)CC1` the figure was 683 s; with `CC(C)CC(=O)Nc1ccc(-n2cnc(C(=O)NC3CCCC3)c2)nc1`, 772 s; with `Cc1cccc2nnc(N3CCN(C(=O)c4cc(F)cc(F)c4)CC3)n12`, 669 s.
`CC(C)Cn1cc(CCNS(=O)(=O)c2ccc(Br)cc2)c2cccnc21` registered an RP-LC retention time of 998 s.
With `CNC(=O)CN(C)C(=O)c1cc2c(s1)N(C)CCCC2` the figure was 686 s; with `Cc1cc(-c2nnc(-c3ccco3)o2)c(C)n1CC(=O)Nc1cccc(Cl)c1`, 920 s.
To `O=C(C1=NN(Cc2ccccc2)c2ccccc2S1(=O)=O)N1CCCCC1` belongs 929 s; to `Cc1cccc(NC(=O)N2CCC(CN3CCCC(C)C3)CC2)c1C` (stereo not given), 620 s; to `CCN1C(=O)c2ccccc2Sc2cc(-c3noc(CNC(=O)c4cccs4)n3)ccc21`, 917 s.
On to `COc1cc(OC)c(NC(=O)C(C)Oc2ccc(=O)n(-c3ccc(F)cc3)n2)cc1Cl` (stereo not given), for which the RP-LC retention time was 844 s.
The compound `CN(Cc1nc(-c2ccc(N3CCSCC3)nc2)no1)C1CCCCC1` had an RP-LC retention time of 694 s.
Compound `Cc1cc2ccccc2n1CCNC(=O)C(=O)c1c[nH]c2ccccc12` returned an RP-LC retention time of 1010 s.
With `COc1cc(OC)cc(C(=O)N2CCC3(CC2)NC(=O)c2ccccc2N3C)c1` the figure was 734 s; with `Cc1ccc(NC(=O)C2(Cc3cccnc3)CCCCC(=O)N2)cc1` (stereo not given), 611 s; with `CCOc1cccc2sc(N(Cc3ccccn3)C(=O)c3nn(C)cc3C)nc12`, 763 s.
Compound `Fc1ccccc1-c1ccc(CNCc2ccco2)o1` yielded an RP-LC retention time of 659 s.
With `COCC(=O)NC1CCC12CCN(C(=O)c1ccoc1)CC2` (stereo not given) the figure was 643 s.
With `O=C(NCC1CCN(C(=O)Oc2ccccc2)CC1)c1ccsc1` the figure was 739 s.
`Cc1ccc(CNC(=O)c2nc3cccnc3n(CC(C)C)c2=O)cc1` gave an RP-LC retention time of 1010 s.
`CCN(CC)CCCNC(=O)C(C)n1c2ccccc2c2cnn(C)c(=O)c21` (stereo not given) came in with an RP-LC retention time of 559 s.
To `COc1ccc([N+](=O)[O-])cc1NC(=O)N(C)Cc1ccco1` belongs 922 s; to `O=C(Nc1cnc(-c2ccc(Cl)cc2)nc1)C1CCCO1` (stereo not given), 910 s; to `COc1ccc(OC)c(NC(=O)C2C(=O)NC3(C)CC2c2ccccc2O3)c1` (stereo not given), 875 s.
To `CC(C)n1cnc2cc(CNC(=O)c3ccc(C#N)cc3F)ccc21` belongs 597 s; to `CCN1CCCC1CNC(=O)C1CCN(S(=O)(=O)c2ccc3c(c2)sc(=O)n3C)CC1` (stereo not given), 794 s; to `CCOc1cccc(-c2noc(Cn3cnc4c(oc5ccccc54)c3=O)n2)c1`, 1010 s.
With `Cn1c(=O)c(N2CCN(C(=O)c3cc(Cl)ccc3F)CC2)nc2ccncc21` the figure was 560 s; with `COc1ccc(N2CCN(C(=O)c3csc(-c4ccc(N5CCCC5)nc4)n3)CC2)cc1`, 651 s; with `CCOC(=O)c1c(C)[nH]c(C(=O)N2CCC(CC(=O)N3CCN(C4CCCCC4)CC3)CC2)c1C`, 624 s.
Take `CCc1nncn1C1CCN(S(=O)(=O)c2ccc(C)c(C)c2)CC1`: the RP-LC retention time came out at 731 s.
In turn, `Cc1nnc(C2CCCN(C(=O)Cn3c(=O)oc4ccccc43)C2)s1` (stereo not given) yielded an RP-LC retention time of 633 s.
With `O=C(c1cccc([N+](=O)[O-])c1)N1CCN(C(c2ccccc2)c2ccccc2)CC1` the figure was 757 s; with `O=C(NCc1cccc(Br)c1)C1CCCN(c2nccnc2Oc2ccccc2)C1` (stereo not given), 1050 s.
With `CCC(c1cccs1)N1C(=O)[C@H]2CN(S(=O)(=O)c3cccnc3)C[C@H]2C1=O` (stereo not given in full) the figure was 824 s.
To `C=CCNC(=O)NC1CCN(C2=NS(=O)(=O)C(c3cccc(Cl)c3)=C2C)CC1` belongs 861 s; to `Cc1ccn2cc(-c3ccc(NS(=O)(=O)c4cc(C)c(C)cc4C)cc3)nc2n1`, 712 s.
